Results reported in US9814699B2, “Chemical compounds” (Janssen Pharmaceuticals, Inc., priority 2009, dated 2017).

How the values were obtained:
[1] = tested on: HCV genotype 1a subgenomic replicon; test: HCV replicon assay, genotype 1a subgenomic replicon (luciferase); assay type: cell-based; settings: Hepatitis C virus; genotype 1a replicon stable cell line, luciferase activity measured 48 hours later; read-out: Replicon 1A pEC50 (converted)
Method: (§1) Protocol for Testing and Data Analysis of Compounds in the HCV Replicon Assay
(§2) Compounds were assayed for activity against HCV using the genotype 1a and 1b subgenomic replicon model systems. Stable cell lines bearing the genotype 1a and 1b replicons were used for screening of compounds. Both replicons are bicistronic and contain the firefly luciferase gene. The ET cell line is stably transfected with RNA transcripts harboring a I389luc-ubi-neo/NS3-3′/ET replicon with firefly luciferase-ubiquitin-neomycin phosphotransferase fusion protein and EMCV-IRES driven NS3-5B polyprotein containing the cell culture adaptive mutations (E1202G; T1280I; K1846T) (Krieger at al, 2001 and unpublished). The genotype 1a replicon is a stable cell line licensed from Apath LLC, modified to contain the firefly luciferase gene. The cells were grown in DMEM, supplemented with 10% fetal calf serum, 2 mM Glutamine, Penicillin (100 IU/mL)/Streptomycin (100 μg/mL), 1× nonessential amino acids, and 250-500 μg/mL G418 (“Geneticin”). They were all available through Life Technologies (Bethesda, Md.). The cells were plated at 5×10^3 cells/well in 384 well plates containing compounds. The final concentration of compounds ranged between 0.03 pM to 50 μm and the final DMSO concentration of 0.5-1%.
(§3) Luciferase activity was measured 48 hours later by adding a Steady glo reagent (Promega, Madison, Wis.). Percent inhibition of replication data was plotted relative to no compound control. Under the same condition, cytotoxicity of the compounds was determined using cell titer glo (Promega, Madison, Ws). EC50s were determined from an 11 point dose response curve using 3-4-fold serial dilution for each compound, which spans a concentration range >1000 fold. The level of inhibition for each compound was determined with Activity Base or with BioAssay plus the Excel XC50 module. Percent inhibition was determined with the following equation where the cross-talk corrected value is the value from the test well, the compound positive control mean is the average value of the wells with no compound present, and the DMSO negative control mean is the average value of the wells with DMSO but no cells present.
(§4) [formula] These normalized values are exported to EC50 where they are plotted against the molar compound concentrations using the standard four parameter logistic equation: […]

[2] = tested on: HCV genotype 1b subgenomic replicon; test: HCV replicon assay, genotype 1b subgenomic replicon (ET cell line, luciferase); assay type: cell-based; settings: Hepatitis C virus; genotype 1b replicon ET cell line, luciferase activity measured 48 hours later; read-out: Replicon 1B pEC50 (converted)
Method: as §1, §2, §3, §4

Compound	EC50 [1] [nM]	EC50 [2] [nM]
CNC(=O)N1CC2(CC(c3ncc(-c4ccc(-c5ccc(-c6cnc([C@@H]7CCCN7C(=O)[C@@H](NC(=O)OC)C(C)C)[nH]6)cc5)cc4)[nH]3)N(C(=O)[C@@H](NC(=O)OC)C(C)C)C2)C1 (stereo partly drawn) [Example 27, methyl [(1S)-2-methyl-1-({(2S)-2-[4-(4′-{2-[2-[(methylamino)carbonyl]-6-((2S)-3-methyl-2-{[(methyloxy)carbonyl]amino}butanoyl)-2,6-diazaspiro[3.4]oct-7-yl]-1H-imidazol-4-yl}-4-biphenylyl)-1H-imidazol-2-yl]-1-pyrrolidinyl}carbonyl)propyl]carbamate]	6.31	0.251
COC(=O)N[C@H](C(=O)N1CC2(CC1c1ncc(-c3ccc(-c4ccc(-c5cnc([C@@H]6CCCN6C(=O)[C@@H](NC(=O)OC)C(C)C)[nH]5)cc4)cc3)[nH]1)CN(S(C)(=O)=O)C2)C(C)C (stereo partly drawn) [Example 28, methyl [(1S)-2-methyl-1-({(2S)-2-[4-(4′-{2-[6-((2S)-3-methyl-2-{[(methyloxy)carbonyl]amino}butanoyl)-2-(methylsulfonyl)-2,6-diazaspiro[3.4]oct-7-yl]-1H-imidazol-4-yl}-4-biphenylyl)-1H-imidazol-2-yl]-1-pyrrolidinyl}carbonyl)propyl]carbamate]	1.58	0.0501
COC(=O)N[C@H](C(=O)N1CCC[C@H]1c1ncc(-c2ccc(-c3ccc(-c4cnc([C@@H]5CC6(CN5C(=O)[C@@H](NC(=O)OC)C(C)C)CC(F)(F)C6)[nH]4)cc3)cc2)[nH]1)C(C)C [Example 29, methyl [(1S)-1-({(2S)-2-[4-(4′-{2-[(7S)-2,2-difluoro-6-((2S)-3-methyl-2-{[(methyloxy)carbonyl]amino}butanoyl)-6-azaspiro[3.4]oct-7-yl]-1H-imidazol-4-yl}-4-biphenylyl)-1H-imidazol-2-yl]-1-pyrrolidinyl}carbonyl)-2-methylpropyl]carbamate]	0.1	0.00316
COC(=O)N[C@H](C(=O)N1CCC[C@H]1c1ncc(-c2ccc(-c3ccc(-c4cnc(C5CCC6(CCOCC6)N5C(=O)[C@@H](NC(=O)OC)C(C)C)[nH]4)cc3)cc2)[nH]1)C(C)C (stereo partly drawn) [Example 30, methyl [(1S)-2-methyl-1-({(2S)-2-[4-(4′-{2-[1-((2S)-3-methyl-2-{[(methyloxy)carbonyl]amino}butanoyl)-8-oxa-1-azaspiro[4.5]dec-2-yl]-1H-imidazol-4-yl}-4-biphenylyl)-1H-imidazol-2-yl]-1-pyrrolidinyl}carbonyl)propyl]carbamate]	1.58	0.0631
COC(=O)N[C@H](C(=O)N1CCC[C@H]1c1ncc(-c2ccc(-c3ccc(-c4cnc(C5CCC6(CCOCC6)N5C(C)=O)[nH]4)cc3)cc2)[nH]1)C(C)C (stereo partly drawn) [Example 31, methyl ((1S)-1-{[(2S)-2-(4-{4′-[2-(1-acetyl-8-oxa-1-azaspiro[4.5]dec-2-yl)-1H-imidazol-4-yl]-4-biphenylyl}-1H-imidazol-2-yl)-1-pyrrolidinyl}carbonyl]-2-methylpropyl)carbamate]	0.316	0.0126
COC(=O)N[C@H](C(=O)N1CCC[C@H]1c1ncc(-c2ccc(-c3ccc(-c4c[nH]c(C5CCC6(CCC(F)(F)CC6)N5C(=O)[C@@H](NC(=O)OC)C(C)C)n4)cc3)cc2)[nH]1)C(C)C (stereo partly drawn) [Example 32, methyl [(1S)-1-({(2S)-2-[4-(4′-{2-[8,8-difluoro-1-((2S)-3-methyl-2-{[(methyloxy)carbonyl]amino}butanoyl)-1-azaspiro[4.5]dec-2-yl]-1H-imidazol-4-yl}-4-biphenylyl)-1H-imidazol-2-yl]-1-pyrrolidinyl}carbonyl)-2-methylpropyl]carbamate]	1.58	0.0158
CC[C@H](NC(=O)OC)C(=O)N1C(c2nc(-c3ccc(-c4ccc(-c5cnc([C@@H]6CCCN6C(=O)[C@@H](NC(=O)OC)C(C)C)[nH]5)cc4)cc3)c[nH]2)CCC12CCC(F)(F)CC2 (stereo partly drawn) [Example 33, methyl [(1S)-1-({8,8-difluoro-2-[4-(4′-{2-[(2S)-1-((2S)-3-methyl-2-{[(methyloxy)carbonyl]amino}butanoyl)-2-pyrrolidinyl]-1H-imidazol-4-yl}-4-biphenylyl)-1H-imidazol-2-yl]-1-azaspiro[4.5]dec-1-yl}carbonyl)propyl]carbamate]	1	0.0158
COC(=O)N[C@@H](C)C(=O)N1C(c2nc(-c3ccc(-c4ccc(-c5cnc([C@@H]6CCCN6C(=O)[C@@H](NC(=O)OC)C(C)C)[nH]5)cc4)cc3)c[nH]2)CCC12CCC(F)(F)CC2 (stereo partly drawn) [Example 34, methyl ((1S)-2-{8,8-difluoro-2-[4-(4′-{2-[(2S)-1-((2S)-3-methyl-2-{[(methyloxy)carbonyl]amino}butanoyl)-2-pyrrolidinyl]-1H-imidazol-4-yl}-4-biphenylyl)-1H-imidazol-2-yl]-1-azaspiro[4.5]dec-1-yl}-1-methyl-2-oxoethyl)carbamate]	0.631	0.01
COC(=O)N[C@@H](CC(C)C)C(=O)N1C(c2nc(-c3ccc(-c4ccc(-c5cnc([C@@H]6CCCN6C(=O)[C@@H](NC(=O)OC)C(C)C)[nH]5)cc4)cc3)c[nH]2)CCC12CCC(F)(F)CC2 (stereo partly drawn) [Example 35, methyl [(1S)-1-({8,8-difluoro-2-[4-(4′-{2-[(2S)-1-((2S)-3-methyl-2-{[(methyloxy)carbonyl]amino}butanoyl)-2-pyrrolidinyl]-1H-imidazol-4-yl}-4-biphenylyl)-1H-imidazol-2-yl]-1-azaspiro[4.5]dec-1-yl}carbonyl)-3-methylbutyl]carbamate]	2	0.0126
COC(=O)N[C@H](C(=O)N1CCC[C@H]1c1ncc(-c2ccc(-c3ccc(-c4c[nH]c(C5CCC6(CCC(F)(F)CC6)N5C(C)=O)n4)cc3)cc2)[nH]1)C(C)C (stereo partly drawn) [Example 36, methyl ((1S)-1-{[(2S)-2-(4-{4′-[2-(1-acetyl-8,8-difluoro-1-azaspiro[4.5]dec-2-yl)-1H-imidazol-4-yl]-4-biphenylyl}-1H-imidazol-2-yl)-1-pyrrolidinyl]carbonyl}-2-methylpropyl)carbamate]	25.1	0.1
COC(=O)N[C@H](C(=O)N1CCC[C@H]1c1ncc(-c2ccc(-c3ccc(-c4c[nH]c(C5CCC6(CCS(=O)(=O)CC6)N5C(=O)[C@@H](NC(=O)OC)C(C)C)n4)cc3)cc2)[nH]1)C(C)C (stereo partly drawn) [Example 37, methyl [(1S)-2-methyl-1-({(2S)-2-[4-(4′-{2-[1-((2S)-3-methyl-2-{[(methyloxy)carbonyl]amino}butanoyl)-8,8-dioxido-8-thia-1-azaspiro[4.5]dec-2-yl]-1H-imidazol-4-yl}-4-biphenylyl)-1H-imidazol-2-yl]-1-pyrrolidinyl}carbonyl)propyl]carbamate]	12.6	0.316
